From patent US12336981B2, “Compounds and compositions for the inhibition of NAMPT” (Valo Health, Inc., priority 2010, dated 2025)
Like-named read-outs stand apart in the source and are kept apart here.

Experiments:
[1] = system: A2780 cells; test: In-vitro cell proliferation assay (SRB), A2780 cells; type: cell-based; settings: A2780 cells, 72 hours, read-out: A2780 IC50
In short: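 Proliferation is assessed by sulforhodamine B staining following a 72-hour incubation with compound dilutions containing 0.1% DMSO.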

[2] = target: T1, NAMPT (Homo sapiens, UniProt P43490); test: Biochemical inhibition assay: NAMPT enzymatic reaction, NMN quantified by mass spectrometry; settings: read-out: Biochem IC50
T1 construct: His tag; host or cells: E. coli
In short: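 Inhibition of E. coli-expressed His-tagged human NAMPT, measured as NMN formation by mass spectrometry after a 30 min room-temperature reaction containing 1 μM NAM, 100 μM PRPP and 2.5 mM ATP.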

[3] = Homo sapiens, A2780, 72 h, SRB assay

T1 sequence (P43490 whole entry): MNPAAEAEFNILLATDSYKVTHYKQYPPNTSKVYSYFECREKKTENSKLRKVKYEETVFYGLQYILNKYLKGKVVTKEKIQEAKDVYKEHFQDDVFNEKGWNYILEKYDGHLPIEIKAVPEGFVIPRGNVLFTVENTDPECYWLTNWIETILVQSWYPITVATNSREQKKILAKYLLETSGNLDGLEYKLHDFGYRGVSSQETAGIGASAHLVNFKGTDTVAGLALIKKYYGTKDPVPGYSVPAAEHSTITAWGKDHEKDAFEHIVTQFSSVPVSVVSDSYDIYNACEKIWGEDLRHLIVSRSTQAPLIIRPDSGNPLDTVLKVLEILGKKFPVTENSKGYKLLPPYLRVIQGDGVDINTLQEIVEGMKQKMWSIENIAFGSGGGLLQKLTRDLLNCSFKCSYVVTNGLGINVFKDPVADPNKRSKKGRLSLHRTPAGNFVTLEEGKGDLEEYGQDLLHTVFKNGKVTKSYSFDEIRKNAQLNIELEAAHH

Row | SMILES | IC50 ([1]; Homo sapiens, A2780, 72 h, SRB) | IC50 ([2]; NAMPT enzymatic assay) | IC50 ([2]; NAMPT enzymatic reaction) | IC50 [1, 3] | IC50 ([1]; SRB)
1 | O=C(NCc1ccc(S(=O)(=O)c2cccnc2N2CCOCC2)cc1)c1cnc2nccn2c1 [N-({4-[2-(morpholin-4-yl)pyridine-3-sulfonyl]phenyl}methyl)imidazo[1,2-a]pyrimidine-6-carboxamide] | 100 to 1000 nM | 31.2 nM |  |  | 
2 | CCOc1ccc(S(=O)(=O)c2ccc(CNC(=O)c3cc4ccncc4s3)cc2)cc1 | 4 nM |  | 2.1 nM |  | 
3 | COc1cc(Cl)ccc1S(=O)(=O)c1ccc(CNC(=O)c2cc3cnccc3[nH]2)cc1 [N-({4-[(4-chloro-2-methoxybenzene)sulfonyl]phenyl}methyl)-1H-pyrrolo[3,2-c]pyridine-2-carboxamide] |  |  | 22 nM | 3 nM | 
4 | Cc1cc(S(=O)(=O)c2ccc(CNC(=O)c3cnc4[nH]ncc4c3)cc2)c(C)cc1F [N-({4-[(4-fluoro-2,5-dimethylbenzene)sulfonyl]phenyl}methyl)-1H-pyrazolo[3,4-b]pyridine-5-carboxamide] | 45.9 nM |  | 37.3 nM |  | 
5 | O=C(NCc1ccc(S(=O)(=O)c2ccccn2)cc1)c1cc2ccncc2o1 [N-{[4-(pyridine-2-sulfonyl)phenyl]methyl}furo[2,3-c]pyridine-2-carboxamide] | 87 nM | 55.1 nM |  |  | 
6 | Cc1cc(C(F)(F)F)ccc1S(=O)(=O)c1ccc(CNC(=O)c2cc3ccncc3s2)cc1 | 24.2 nM | 10.3 nM |  |  | 
7 | COc1cc(S(=O)(=O)c2ccc(CNC(=O)c3cc4cnccc4[nH]3)cc2)ccc1Cl | 3.6 nM |  | 5.5 nM |  | 
8 | O=C(NCc1ccc(S(=O)(=O)c2cccc(-c3ccccc3)c2)cc1)c1ccc2nccn2c1 | 6.8 nM |  | 12.2 nM |  | 
9 | Cc1ccc(F)c(S(=O)(=O)c2ccc(CNC(=O)c3cnc4[nH]ncc4c3)cc2)c1 |  |  | 24.1 nM |  | 71.6 nM
10 | COc1cc(Cl)c(C)cc1NS(=O)(=O)c1ccc(CNC(=O)c2cc3cnccc3[nH]2)cc1 [N-({4-[(4-chloro-2-methoxy-5-methylphenyl)sulfamoyl]phenyl}methyl)-1H-pyrrolo[3,2-c]pyridine-2-carboxamide] |  |  | 7840 nM | 18300 nM | 
11 | O=C(NCc1ccc(S(=O)(=O)c2csc(-c3cccc(F)c3)n2)cc1)c1cc2ccncc2o1 [N-({4-[2-(3-fluorophenyl)-1,3-thiazole-4-sulfonyl]phenyl}methyl)furo[2,3-c]pyridine-2-carboxamide] | 50.4 nM | 11.9 nM |  |  | 
12 | Cc1cccc(S(=O)(=O)c2ccc(CNC(=O)c3cc4cnccc4[nH]3)cc2)c1C [N-({4-[(2,3-dimethylbenzene)sulfonyl]phenyl}methyl)-1H-pyrrolo[3,2-c]pyridine-2-carboxamide] | 7 nM | 14 nM |  |  | 
13 | O=C(NCc1ccc(S(=O)(=O)c2ccccc2Oc2ccccc2)cc1)c1cc2cnccc2[nH]1 [N-({4-[(2-phenoxybenzene)sulfonyl]phenyl}methyl)-1H-pyrrolo[3,2-c]pyridine-2-carboxamide] |  |  | 11 nM | 7 nM | 
14 | Cc1cc(C)n(-c2cccc(S(=O)(=O)c3ccc(CNC(=O)c4cc5ccncc5o4)cc3)c2)n1 | 3.5 nM | 7.1 nM |  |  | 
15 | O=C(NCc1ccc(S(=O)(=O)c2cccc(OC(F)(F)F)c2)cc1)c1cnc2[nH]ncc2c1 | 7.1 nM | 20.4 nM |  |  | 
16 | O=C(NCc1ccc(S(=O)(=O)c2cncc(C(F)(F)F)c2)cc1)c1ccc2nccn2c1 [N-({4-[5-(trifluoromethyl)pyridine-3-sulfonyl]phenyl}methyl)imidazo[1,2-a]pyridine-6-carboxamide] | 1.3 nM | 9 nM |  |  | 
17 | O=C(NCc1ccc(S(=O)(=O)c2ccc(Cl)c(C(F)(F)F)c2)cc1)c1ccc2nccn2c1 [N-[(4-{[4-chloro-3-(trifluoromethyl)benzene]sulfonyl}phenyl)methyl]imidazo[1,2-a]pyridine-6-carboxamide] | 3.57 nM | 9.84 nM |  |  | 

Row | SMILES | IC50 ([1]; Homo sapiens, A2780, 72 h, SRB) | IC50 ([2]; NAMPT enzymatic assay) | IC50 ([2]; NAMPT enzymatic reaction) | IC50 [1, 3] | IC50 ([1]; SRB)
18 | O=C(NCc1ccc(S(=O)(=O)c2cccc(OC(F)(F)F)c2)cc1)c1cc2cnccc2[nH]1 [N-[(4-{[3-(trifluoromethoxy)benzene]sulfonyl}phenyl)methyl]-1H-pyrrolo[3,2-c]pyridine-2-carboxamide] |  |  | 5 nM | 3 nM | 
19 | O=C(NCc1ccc(S(=O)(=O)c2cnc(N3CCCC3)s2)cc1)c1cnc2[nH]ncc2c1 [N-({4-[2-(pyrrolidin-1-yl)-1,3-thiazole-5-sulfonyl]phenyl}methyl)-1H-pyrazolo[3,4-b]pyridine-5-carboxamide] | 0.9 nM | 2.8 nM |  |  | 
20 | Cc1cc(C)c(S(=O)(=O)c2ccc(CNC(=O)c3cc4ccncc4s3)cc2)cc1C [N-({4-[(2,4,5-trimethylbenzene)sulfonyl]phenyl}methyl)thieno[2,3-c]pyridine-2-carboxamide] | 8.1 nM | 8 nM |  |  | 
21 | Cc1ccc(Cl)c(S(=O)(=O)c2ccc(CNC(=O)c3cc4ccncc4s3)cc2)c1 | 4.9 nM |  | 2.2 nM |  | 
22 | O=C(NCc1ccc(S(=O)(=O)c2nccs2)cc1)c1ccc2nccn2c1 [N-{[4-(1,3-thiazole-2-sulfonyl)phenyl]methyl}imidazo[1,2-a]pyridine-6-carboxamide] | 99.4 nM | 21 nM |  |  | 
23 | COc1ccc(C(C)C)cc1S(=O)(=O)c1ccc(CNC(=O)c2ccc3nccn3c2)cc1 | 6.4 nM | 35.2 nM |  |  | 
24 | O=C(NCc1ccc(S(=O)(=O)c2ccc(F)c(OCC(F)(F)F)c2)cc1)c1cc2cnccc2[nH]1 | 6.5 nM | 10.3 nM |  |  | 
25 | O=C(NCc1ccc(S(=O)(=O)N2CCCCC2)cc1)c1ccc2ncsc2c1 [N-{[4-(piperidine-1-sulfonyl)phenyl]methyl}-1,3-benzothiazole-6-carboxamide] |  |  | 9 nM | 10 nM | 
26 | O=C(NCc1ccc(S(=O)(=O)c2cc(OC(F)(F)F)ccc2Cl)cc1)c1cc2cnccc2[nH]1 [N-[(4-{[2-chloro-5-(trifluoromethoxy)benzene]sulfonyl}phenyl)methyl]-1H-pyrrolo[3,2-c]pyridine-2-carboxamide] | 12 nM | 53.1 nM |  |  | 
27 | O=C(NCc1ccc(S(=O)(=O)c2cc(F)ccc2Cl)cc1)c1cc2ccncc2s1 | 5.7 nM |  | 4.2 nM |  | 
28 | O=C(NCc1ccc(S(=O)(=O)c2cccc(Cl)c2)cc1)c1cnc2[nH]ncc2c1 [N-({4-[(3-chlorobenzene)sulfonyl]phenyl}methyl)-1H-pyrazolo[3,4-b]pyridine-5-carboxamide] | 6 nM |  | 7 nM |  | 
29 | COc1cc(Cl)cc(S(=O)(=O)c2ccc(CNC(=O)c3cc4cnccc4[nH]3)cc2)c1 [N-({4-[(3-chloro-5-methoxybenzene)sulfonyl]phenyl}methyl)-1H-pyrrolo[3,2-c]pyridine-2-carboxamide] | 2.5 nM |  | 17 nM |  | 
30 | CN(C)C(=O)c1ccc(S(=O)(=O)c2ccc(CNC(=O)c3cc4cnccc4[nH]3)cc2)cc1 [N-[(4-{[4-(dimethylcarbamoyl)benzene]sulfonyl}phenyl)methyl]-1H-pyrrolo[3,2-c]pyridine-2-carboxamide] |  |  | 27 nM | 14 nM | 
31 | COc1cc(Cl)ccc1S(=O)(=O)c1ccc(CNC(=O)c2cnc3nccn3c2)cc1 | 24.7 nM |  | 3.3 nM |  | 
32 | CN(C)Cc1ccc(S(=O)(=O)c2ccc(CNC(=O)c3cnc4nccn4c3)cc2)cc1 | 24.6 nM | 3.3 nM |  |  | 
33 | O=C(NCc1ccc(S(=O)(=O)c2cccc(N3CCCCC3)c2)cc1)c1cc2ccncc2o1 [N-[(4-{[3-(piperidin-1-yl)benzene]sulfonyl}phenyl)methyl]furo[2,3-c]pyridine-2-carboxamide] | 12.7 nM | 11.3 nM |  |  | 
